Entries after “also recorded” stand apart in the source; their conditions may differ.
Columns and labels:
ARPE-19 cells = test: Cell viability (XTT assay); type: cell-based; settings: Homo sapiens, 48 h, read-out: A. Safety IC50 on ARPE-19 cells
Method: ARPE-19 cells were incubated in a 96-well plate with different effectors for 48 hours. Fifty microliters of sodium 3′-[1-phenylaminocarbonyl)-3,4-tetrazolium]-bis(4-methoxy-6-nitro) benzene sulfonic acid hydrate (XTT) reagent was added to each well. The test is based on the cleavage of the yellow tetrazolium salt XTT to form an orange formazan dye by metabolically active cells. This bio-reduction occurs in viable cells only and is associated with NAD(P)H production through glycolysis. Therefore, the amount of formazan dye measured at 490 nm, correlates directly with the number of metabolically active cells reflecting cell proliferation, viability, and cytotoxicity. Each assay was performed in quadruplicate.
(§1) All compounds were evaluated in different experiments. Results are represented as the mean of three independent experiments. A. ARPE-19 cells were treated with dose response of compound for 48 h. Values are reported as IC50 measured with the XTT assay. B and C. ARPE-19 cells were treated with 5 μM (B) or 1 μM (C) compound then with 200 μM H2O2 for 2 h. ROS were analyzed by cytometry. […] As illustrated in FIG. 1A. D. ARPE-19 cells were treated with 2.5 μM compound for 48 h and the level of CXCL1 mRNA was evaluated by qPCR. […] As illustrated in FIG. 1B. E. TIME cells were pre-treated with 2.5 μM compound for 1 h then stimulated with 100 ng/ml CXCL8 for 15 min p-ERK levels were analyzed by immunoblotting. HSP90 served as loading control. […] As illustrated in FIG. 1C.

[1] = test system: ocular (retinal) neo-angiogenesis; test: Hypoxia-induced retinal neo-angiogenesis in zebrafish; type: in vivo; settings: hypoxia 5% oxygen 72 h, 0.25, 0.5, or 1 μM
Method: All animal experiments were approved by the Experimental Animal Ethical Committee. Transgenic zebrafish embryos (fli: EGFP, blood vessels marked in GFP) were raised at 28° C. under standard experimental conditions. Zebrafish embryos at the age of 24 hpf were incubated in aquarium water containing 0.2 mmol/L 1-phenyl-2-thio-urea (PTU, Sigma). At 48-hpf, zebrafish embryos were placed for 72 h in normoxia (Nx) or hypoxia 5% oxygen […], in the presence of treatment. Retinal neo-angiogenesis was analyzed by fluorescent confocal microscope and quantified by ImageJ.

ROS = ROS labeling by cytometry after H2O2; type: cell-based; settings: Homo sapiens, ARPE-19; for inhibition at 1 µM: 1 μM compound then 200 μM H2O2 for 2 h, read-out: C. ROS inhibition 1 μM - ARPE-19 cells; for inhibition at 5 µM: 5 μM compound then 200 μM H2O2 for 2 h, read-out: B. ROS inhibition 5 μM - ARPE-19 cells
Method: ARPE-19 cells were treated with MCK349 30 minutes then with 200 μM H2O2 for 2 h. 10 μM DCF-DA (2′,7′-Dichlorofluorescein diacetate) were added on cell media for 30 min. Cells were rinsed then detached (trypsin) and resuspended in PBS 0.5% BSA and 2 mM EDTA. The cells are analyzed by cytometry (ROS labeled with DCFDA-FITC).
as §1

ERK activation (p-ERK) = test: p-ERK immunoblotting after CXCL8 stimulation; type: cell-based; settings: 2.5 μM compound 1 h then 100 ng/ml CXCL8 for 15 min; read-out: E. p-ERK inhibition - TIME
Method: Cells were lysed in buffer containing 3% SDS, 10% glycerol and 0.825 mM Na2HPO4. 30 to 50 μg of proteins separated on 10% SDS-PAGE, transferred onto a PVDF membrane and then exposed to the appropriate antibodies. Proteins were visualized with the ECL system using horseradish peroxidase-conjugated anti-rabbit or anti-mouse antibodies.
as §1

Compound	IC50 (ARPE-19 cells) [µM]	ocular (retinal) neo-angiogenesis in zebrafish [1]	inhibition at 1 µM (ROS) [%]	inhibition at 5 µM (ROS) [%]	inhibition at 2.5 µM (ERK activation (p-ERK)) [%]
CC(C)c1ccc(Cn2nc(Nc3ccccc3)nc2N)cc1 [MCK263, 1-(4-isopropylbenzyl)-N^3-phenyl-1H-1,2,4-triazole-3,5-diamine]	> 25	inhibit ocular (retinal) neo-angiogenesis; also recorded: inhibit ocular neoangiogenesis	≥ 50	≥ 50	≥ 50
Nc1nc(Nc2ccccn2)nn1CC(=O)c1cccc([N+](=O)[O-])c1 [MCK295, 2-(5-amino-3-(pyridin-2-ylamino)-1H-1,2,4-triazol-1-yl)-1-(3-nitrophenyl)ethan-1-one]	> 25	–	< 50	< 50	≥ 50
Nc1nc(Nc2ccccc2)nn1Cc1ccccc1[N+](=O)[O-] [MCK297, 1-(2-nitrobenzyl)-N^3-phenyl-1H-1,2,4-triazole-3,5-diamine]	> 25	–	< 50	< 50	≥ 50
COc1cc(Cn2nc(Nc3ccccc3)nc2N)cc(OC)c1OC [MCK298, N^3-phenyl-1-(3,4,5-trimethoxybenzyl)-1H-1,2,4-triazole-3,5-diamine]	> 25	–	< 50	< 50	≥ 50
Nc1nc(Nc2ccccc2)nn1CC(=O)c1ccccc1 [MCK299, 2-(5-amino-3-(phenylamino)-1H-1,2,4-triazol-1-yl)-1-phenylethan-1-one]	> 25	–	< 50	< 50	≥ 50
Nc1nc(Nc2ccccc2)n(CCc2ccccc2)n1 [MCK300, 1-phenethyl-N^5-phenyl-1H-1,2,4-triazole-3,5-diamine]	> 25	–	< 50	< 50	≥ 50
Nc1nc(Nc2ccccc2)nn1CCc1ccccc1 [MCK301, 1-phenethyl-N^3-phenyl-1H-1,2,4-triazole-3,5-diamine]	> 25	–	< 50	< 50	< 50
Nc1nc(Nc2ccccc2)n(Cc2cccc(C(F)(F)F)c2)n1 [MCK338, N^5-phenyl-1-(3-(trifluoromethyl)benzyl)-1H-1,2,4-triazole-3,5-diamine]	> 25	–	≥ 50	≥ 50	< 50
Nc1nc(Nc2ccccc2)n(Cc2cccc(Br)c2)n1 [MCK339, 1-(3-bromobenzyl)-N^5-phenyl-1H-1,2,4-triazole-3,5-diamine]	> 25	–	< 50	≥ 50	< 50
COc1ccc(Nc2nc(N)n(Cc3cccc(Br)c3)n2)cc1 [MCK340, 1-(3-bromobenzyl)-N^3-(4-methoxyphenyl)-1H-1,2,4-triazole-3,5-diamine]	> 25	–	< 50	< 50	< 50
Cc1ccc(Nc2nc(N)nn2Cc2cccc(Br)c2)cc1 [MCK341, 1-(3-bromobenzyl)-N^5-(4-methylphenyl)-1H-1,2,4-triazole-3,5-diamine]	> 25	–	≥ 50	≥ 50	< 50
Nc1nc(Nc2ccc(Cl)cc2)n(Cc2cccc(Br)c2)n1 [MCK343, 1-(3-bromobenzyl)-N^5-(4-chlorophenyl)-1H-1,2,4-triazole-3,5-diamine]	> 25	–	< 50	≥ 50	≥ 50
Nc1nc(Nc2ccc(Cl)cc2)nn1Cc1cccc(Br)c1 [MCK344, 1-(3-bromobenzyl)-N^3-(4-chlorophenyl)-1H-1,2,4-triazole-3,5-diamine]	> 25	inhibit ocular (retinal) neo-angiogenesis; also recorded: inhibit ocular neoangiogenesis	≥ 50	≥ 50	≥ 50
Nc1nc(Nc2ccc(Br)cc2)n(Cc2cccc(Br)c2)n1 [MCK345, 1-(3-bromobenzyl)-N^5-(4-bromophenyl)-1H-1,2,4-triazole-3,5-diamine]	> 25	–	≥ 50	≥ 50	≥ 50
Nc1nc(Nc2ccc(Br)cc2)nn1Cc1cccc(Br)c1 [MCK346, 1-(3-bromobenzyl)-N^3-(4-bromophenyl)-1H-1,2,4-triazole-3,5-diamine]	> 25	–	≥ 50	≥ 50	≥ 50
COC(=O)c1ccc(Nc2nc(N)nn2Cc2cccc(Br)c2)cc1 [MCK347, methyl-4-((3-amino-1-(3-bromobenzyl)-1H-1,2,4-triazol-5-yl)amino)benzoate]	> 25	–	< 50	< 50	≥ 50
COC(=O)c1ccc(Nc2nc(N)n(Cc3cccc(Br)c3)n2)cc1 [MCK348, methyl-4-((5-amino-1-(3-bromobenzyl)-1H-1,2,4-triazol-3-yl)amino)benzoate]	> 25	–	≥ 50	≥ 50	≥ 50
CC(C)c1ccc(Cn2nc(Nc3ccc(Cl)c(Cl)c3)nc2N)cc1 [MCK350, N^3-(3,4-dichlorophenyl)-1-(4-isopropylbenzyl)-1H-1,2,4-triazole-3,5-diamine]	> 25	–	≥ 50	≥ 50	≥ 50
Nc1nc(Nc2cccnc2)nn1Cc1cccc(Br)c1 [MCK351, 1-(3-bromobenzyl)-N^3-(pyridin-3-yl)-1H-1,2,4-triazole-3,5-diamine]	> 25	–	< 50	< 50	≥ 50
